According to article PMC10721898, “C5 methylation confers accessibility, stability and selectivity to picrotoxinin” (Nature Communications, 2023):
Values joined by “and” are separate entries in the source; they are usually repeats but may differ in a detail not shown here. Equal entries are not always repeated. Where two headings read alike, the source gives them in different places.

Tests used:
[1] = test system: rat GABAA ion channel; settings: preliminary screen; read-out: IC50, competition with [3H]TBOB for binding to rat cerebral cortex; cited from earlier work
[2] = Stability in mouse plasma; type: in vitro ADME; settings: for T½ in mouse plasma / half-life at 2 µM: 37 °C, incubation to 120 min, extrapolated half-life, n = 2; for half-life at 2 µM / remaining at 0 h, 2 µM / remaining at 10 min, 2 µM / remaining at 0.5 h, 2 µM / remaining at 1 h, 2 µM / remaining at 2 h, 2 µM: male, CD-1, mouse, plasma; for half-life at 2 µM: read-out: T½ in mouse plasma; for remaining at 0 h, 2 µM: 0 min; for remaining at 0.5 h, 2 µM: 30 min; for remaining at 1 h, 2 µM: 60 min; for remaining at 2 h, 2 µM: 120 min
Source text: (§1) We investigated the relative rates of esterase-mediated hydrolysis[17] observed in mouse and human plasma, to evaluate potential for future translational applications. […] Due to the high stability of the C15 lactone, identified above, combined with the kinetic lability and reversible opening of the C11 lactone identified previously, enzymatic degradation in serum likely reflects a combination of reversible C11 hydrolysis[38] (unaffected by C5 methylation) and irreversible C15 hydrolysis (obstructed by C5 methylation)[17]. No prior studies have identified PXN modifications that enhance metabolic stability, partly due to the difficulty of synthetic modification and partly due to the prior incorrect assignment of the site of kinetic hydrolysis (C11 vs. C15)[38].
(§2) Test compound working solution: 5 μL of tested compound stock solution (10 mM in DMSO) were diluted with 495 μL of DMSO (concentration: 100 μM, 100% DMSO). Propantheline bromide working solution: 5 μL of propantheline bromide stock solution (10 mM in DMSO) were diluted with 495 μL of H2O (concentration: 100 […]
(§3) Supplementary Table 6. Test system.
(§4) Species/ Matrix Minimum No. of Anticoagulant Vendor
(§5) CD-1 Mouse 20 Male EDTA-K2 Beijing Vital River Laboratory
(§6) Human Plasma 3 Male & 3 Female EDTA-K2 BioreclamationIVT
(§7) The pooled frozen plasma was thawed in a water bath at 37 °C prior to experiment. Plasma was centrifuged at 1968 g (4000 rpm) for 5 min and the clots were removed. Using an Apricot automation work station, 98 μL/well of blank plasma were added to all 96-well reaction plates. (Blank, T0, T10, T30, T60 and T120) . An Apricot automation workstation was used to add 2 μL/well of working solution (100 μM) to all reaction plates except Blank. (T0, T10, T30, T60 and T120) . All reaction plates containing mix tures of compound a nd plasma were incubated at 37 °C in water bath. The reaction plates were incubated at 37 °C, and timer was started. At the end of incubation, 400 μL of stock solution was added (200 ng/mL tolbutamide and 200 ng/mL labetalol in MeCN) to precipitate protein and mixed thoroughly. Each plate was sealed and shaken for 20 minutes, then centrifuged at 1968 g (4000 rpm) and 4 °C for 20 minutes. After centrifugation, an Apricot automation workstation was used to transfer 150 μL supernatant. Each bioanalysis plate was sealed and shaken for 10 minutes prior to LC -MS/MS […]
(§8) The % remaining of test compound after incubation in plasma was calculated using following equation:
(§9) % Remaining= 100 x (PAR at appointed incubation time / PAR at T0 time) where PAR is the peak area ratio of analyte versus internal standard (IS) The appointed incubation time points are T0 (0 min), Tn (n=0, 10, 30, 60, 120 min)
(§10) Supplementary Table 7. %Remaining of test compound in two plasmas.
(§11) Compound Time point (min) % Remaining T½ (min)

[3] = Stability in human plasma; type: in vitro ADME; settings: for T½ in human plasma / half-life at 2 µM: 37 °C, incubation to 120 min, extrapolated half-life, n = 2; for half-life at 2 µM / remaining at 0 h, 2 µM / remaining at 10 min, 2 µM / remaining at 0.5 h, 2 µM / remaining at 1 h, 2 µM / remaining at 2 h, 2 µM: both sexes, human, plasma; for half-life at 2 µM: read-out: T½ in human plasma; for remaining at 0 h, 2 µM: 0 min; for remaining at 0.5 h, 2 µM: 30 min; for remaining at 1 h, 2 µM: 60 min; for remaining at 2 h, 2 µM: 120 min
Source text: as §1, §2, §3, §4, §5, §6, §7, §8, §9, §10, §11

[4] = test system: rat GABAA ion channel; test: Non-selective rat GABAA ion channel [3H]TBOB binding (antagonist radioligand) assay, rat cerebral cortex; settings: for IC50: [3H]TBOB displacement, n = 1
Description: The structurally privileged 5-methyl series was assayed for binding to both GABAA receptors (rat cortex membrane preparations) and RDL (expressed in Xenopus oocytes) and compared directly to the parent PXN (C5-H) series. The parallel series of PXN and 5MePXN analogs allowed us to interrogate the effect of the synthetically-enabling and stabilizing C5 methyl. […]
4. Rat GABAA receptors binding assay
Non-selective rat GABAA ion channel [3H] TBOB binding (Antagonist Radioligand) assay was conducted by Eurofins Pharma Discovery Service of Eurofins Cerep, France.
Compound binding was calculated as a % inhibition of the binding of the radioactive ly labeled ligand [3H] TBOB (t‐[3H]Butylbicycloorthobenzoate) for rat GABAA ion channels.9 A 20.0 mM stock solution was prepared in DMSO from each test compound to evaluate radioligand displacement of [3H] TBOB from rat cerebral cortex GABAA receptors at different concentrations.
The results are expressed as a percent of control specific binding measured specific binding*100 […]
and as a percent inhibition of control specific binding
100 − (measured specific binding*100) […]
obtained in the presence of the test compounds.
The IC50 values (concentration causing a half -maximal inhibition of control specific binding) and Hill coefficients (nH) were determined by non -linear regression analysis of th e competition curves generated with mean replicate values using Hill equation curve fitting […]
where Y = specific binding, A = left asymptote of the curve, D = right asymptote of the curve , C = compound concentration, C 50 = IC50, and nH = slope factor. This analysis was performed using software developed at Cerep (Hill software) and validated by comparison with data generated by th e commercial software SigmaPlot® 4.0 for Windows ® (© 1997 by SPSS Inc.).
The inhibition constants (K i) were calculated using the Cheng Prusoff equation where L = concentration of radioligand in the assay, and KD = affinity of the radioligand for the recept or. A scatchard plot is used to determine the K D.
Supplementary Table 8. IC50 values of test compound
Compound IC50 (µM) Compound IC50 (µΜ)

[5] = reversible solvolysis; cited from earlier work

## C=C(C)C1C2OC(=O)C1(C)C1(O)CC3OC34C(=O)OC2C41C (centres unmarked) [5MePXN, 5-methylpicrotoxinin]
[1]
  IC50: 2100 ± 300 nM
[2]; 5MePXN vs. PXN
  increase of extrapolated half-life by C5 methylation, mouse plasma: 2.1 X
[2]
  T½ in mouse plasma: 3.45 h
  half-life at 2 µM: 3.45 h
  remaining at 0 h, 2 µM: 100%
  remaining at 10 min, 2 µM: 97.9%
  remaining at 0.5 h, 2 µM: 87.9%
  remaining at 1 h, 2 µM: 75.7%
  remaining at 2 h, 2 µM: 68%
[3]; 5MePXN vs. PXN
  increase of extrapolated half-life by C5 methylation, human plasma: 2.7 X
[3]
  T½ in human plasma: 4.82 h and > 4.82 h
  half-life at 2 µM: 4.82 h
  remaining at 0 h, 2 µM: 100%
  remaining at 10 min, 2 µM: 103%
  remaining at 0.5 h, 2 µM: 93.7%
  remaining at 1 h, 2 µM: 84.5%
  remaining at 2 h, 2 µM: 77.7%
[4]; [3H]TBOB binding
  loss in potency from PXN: 10 fold
[4]; Supplementary Table 8 (5MePXN series)
  IC50: 1800 nM

## C=C(C)[C@@H]1[C@H]2OC(=O)[C@@H]1[C@]1(O)C[C@H]3O[C@]34C(=O)O[C@H]2[C@]14C [PXN, picrotoxinin]
[2]
  T½ in mouse plasma: 1.62 h
  half-life at 2 µM: 1.62 h
  remaining at 0 h, 2 µM: 100%
  remaining at 10 min, 2 µM: 102%
  remaining at 0.5 h, 2 µM: 87.1%
  remaining at 1 h, 2 µM: 67.4%
  remaining at 2 h, 2 µM: 44.7%
[5]
  half-life in mouse plasma: ~ 1 h
[3]
  T½ in human plasma: 1.8 h
  half-life at 2 µM: 1.8 h
  remaining at 0 h, 2 µM: 100%
  remaining at 10 min, 2 µM: 130%
  remaining at 0.5 h, 2 µM: 114%
  remaining at 1 h, 2 µM: 72.9%
  remaining at 2 h, 2 µM: 55.8%
[4]; Supplementary Table 8 (PXN series)
  IC50: 210 nM
